Laboratory results from ChEMBL document CHEMBL1671637, “Development, stability, and molecular mechanisms of macrolide resistance in Campylobacter jejuni” (2008).
≈ marks a conversion by molar mass, not a printed value.

What was measured:
Campylobacter jejuni [1] = experiment: Antimicrobial activity against Campylobacter jejuni DC35 harboring protein L4 G74D mutant by agar dilution method; type: functional
Campylobacter jejuni [2] = experiment: Antimicrobial activity against Campylobacter jejuni DC17 harboring protein L4 G57D mutant by agar dilution method
Campylobacter jejuni [3] = experiment: Antimicrobial activity against Campylobacter jejuni DC1 by agar dilution method; type: functional
Campylobacter jejuni [4] = experiment: Antimicrobial activity against Campylobacter jejuni DC14 harboring protein L4 G57D mutant by agar dilution method
Campylobacter jejuni [5] = experiment: Antimicrobial activity against Campylobacter jejuni JL303 harboring protein L22 with insertion of amino acid TSH at position 98 selected at 4 to 16 times MIC after 3 to 4 days by agar dilution method; type: functional
Campylobacter jejuni [6] = experiment: Antimicrobial activity against Campylobacter jejuni JL301 harboring protein L22 with insertion of amino acid TSH at position 98 selected at 4 to 16 times MIC after 3 to 4 days by agar dilution method; type: functional
Campylobacter jejuni [7] = experiment: Antimicrobial activity against Campylobacter jejuni JL284 selected at 4 to 16 times MIC after 3 to 4 days by agar dilution method; type: functional
Campylobacter jejuni [8] = experiment: Antimicrobial activity against Campylobacter jejuni DC13 harboring protein L4 G74D mutant by agar dilution method; type: functional
Campylobacter jejuni [9] = experiment: Antimicrobial activity against Campylobacter jejuni JL307 harboring protein L22 with insertion of amino acid TSH at position 98 selected at 4 to 16 times MIC after 3 to 4 days by agar dilution method; type: functional
Campylobacter jejuni [10] = experiment: Antimicrobial activity against Campylobacter jejuni DC38 harboring protein L4 G74D mutant by agar dilution method; type: functional
Campylobacter jejuni [11] = experiment: Antimicrobial activity against Campylobacter jejuni DC16 harboring protein L4 G74D mutant by agar dilution method; type: functional
Campylobacter jejuni [12] = experiment: Antimicrobial activity against Campylobacter jejuni JL285 selected at 4 to 16 times MIC after 3 to 4 days by agar dilution method; type: functional
Campylobacter jejuni [13] = experiment: Antimicrobial activity against Campylobacter jejuni DC20 harboring protein L4 G74D mutant by agar dilution method; type: functional
Campylobacter jejuni [14] = experiment: Antimicrobial activity against Campylobacter jejuni DC34 harboring protein L4 G74D mutant by agar dilution method; type: functional
Campylobacter jejuni [15] = experiment: Antimicrobial activity against Campylobacter jejuni JL278 selected at 4 to 16 times MIC after 3 to 4 days by agar dilution method; type: functional
Campylobacter jejuni [16] = experiment: Antimicrobial activity against Campylobacter jejuni DC7 harboring protein L4 G74D mutant by agar dilution method; type: functional
Campylobacter jejuni [17] = experiment: Antimicrobial activity against Campylobacter jejuni DC32 harboring 23S rRNA A2074G mutant by agar dilution method; type: functional
Campylobacter jejuni [18] = experiment: Antimicrobial activity against Campylobacter jejuni DC29 by agar dilution method; type: functional
Campylobacter jejuni [19] = experiment: Antimicrobial activity against Campylobacter jejuni DC10 harboring protein L4 G57D mutant by agar dilution method; type: functional
Campylobacter jejuni [20] = experiment: Antimicrobial activity against Campylobacter jejuni JL292 selected at 4 to 16 times MIC after 3 to 4 days by agar dilution method; type: functional
Campylobacter jejuni [21] = experiment: Antimicrobial activity against Campylobacter jejuni JL286 selected at 4 to 16 times MIC after 3 to 4 days by agar dilution method; type: functional
Campylobacter jejuni [22] = experiment: Antimicrobial activity against Campylobacter jejuni DC33 harboring 23S rRNA A2074G mutant by agar dilution method; type: functional
Campylobacter jejuni [23] = experiment: Antimicrobial activity against Campylobacter jejuni DC12 harboring protein L4 G74D mutant by agar dilution method; type: functional
Campylobacter jejuni [24] = experiment: Antimicrobial activity against Campylobacter jejuni JL294 selected at 4 to 16 times MIC after 3 to 4 days by agar dilution method; type: functional
Campylobacter jejuni [25] = experiment: Antimicrobial activity against Campylobacter jejuni JL308 harboring protein L22 with insertion of amino acid TSH at position 98 selected at 4 to 16 times MIC after 3 to 4 days by agar dilution method; type: functional
Campylobacter jejuni [26] = experiment: Antimicrobial activity against Campylobacter jejuni DC19 harboring protein L4 G57D mutant by agar dilution method
Campylobacter jejuni [27] = experiment: Antimicrobial activity against Campylobacter jejuni DC25 harboring protein L4 G74D mutant by agar dilution method; type: functional
Campylobacter jejuni [28] = experiment: Antimicrobial activity against Campylobacter jejuni JL298 selected at 4 to 16 times MIC after 3 to 4 days by agar dilution method; type: functional
Campylobacter jejuni [29] = experiment: Antimicrobial activity against Campylobacter jejuni JL287 harboring 23S rRNA A2074C mutant selected at 4 to 16 times MIC after 3 to 4 days by agar dilution method; type: functional
Campylobacter jejuni [30] = experiment: Antimicrobial activity against tylosin pre-exposed compound-resistant Campylobacter jejuni; type: functional
Campylobacter jejuni [31] = experiment: Antimicrobial activity against Campylobacter jejuni JL293 selected at 4 to 16 times MIC after 3 to 4 days by agar dilution method; type: functional
Campylobacter jejuni [32] = experiment: Antimicrobial activity against Campylobacter jejuni DC22 harboring protein L4 G74D mutant by agar dilution method; type: functional
Campylobacter jejuni [33] = experiment: Antimicrobial activity against Campylobacter jejuni JL305 harboring protein L22 with insertion of amino acid TSH at position 98 selected at 4 to 16 times MIC after 3 to 4 days by agar dilution method; type: functional
Campylobacter jejuni [34] = experiment: Antimicrobial activity against Campylobacter jejuni DC3 harboring 23S rRNA A2074G mutant by agar dilution method; type: functional
Campylobacter jejuni [35] = experiment: Antimicrobial activity against compound-resistant Campylobacter jejuni; type: functional
Campylobacter jejuni [36] = experiment: Antimicrobial activity against Campylobacter jejuni DC36 harboring protein L4 G74D mutant by agar dilution method; type: functional
Campylobacter jejuni [37] = experiment: Antimicrobial activity against Campylobacter jejuni JL289 harboring 23S rRNA A2074C mutant selected at 4 to 16 times MIC after 3 to 4 days by agar dilution method; type: functional
Campylobacter jejuni [38] = experiment: Antimicrobial activity against Campylobacter jejuni DC11 by agar dilution method; type: functional
Campylobacter jejuni [39] = experiment: Antimicrobial activity against Campylobacter jejuni JL300 harboring protein L22 with insertion of amino acid TSH at position 98 selected at 4 to 16 times MIC after 3 to 4 days by agar dilution method; type: functional

Question: For CC[C@H]1OC(=O)[C@H](C)[C@@H](O[C@H]2C[C@@](C)(OC)[C@@H](O)[C@H](C)O2)[C@H](C)[C@@H](O[C@@H]2O[C@H](C)C[C@H](N(C)C)[C@H]2O)[C@](C)(O)C[C@@H](C)C(=O)[C@H](C)[C@@H](O)[C@]1(C)O [ERYTHROMYCIN], which MIC (Campylobacter jejuni [1]) is on record?
Answer: The MIC was 128 µg/mL (≈ 174 µM).

Question: What about the MIC (Campylobacter jejuni [2]) of the same molecule?
Answer: The MIC was 8 µg/mL (≈ 10.9 µM).

Question: And the MIC (Campylobacter jejuni [3])?
Answer: The MIC was 8 µg/mL (≈ 10.9 µM).

Question: And the MIC (Campylobacter jejuni [4])?
Answer: Its MIC is 32 µg/mL (≈ 43.6 µM).

Question: And the MIC (Campylobacter jejuni [5])?
Answer: The MIC was 256 µg/mL (≈ 349 µM).

Question: What about the MIC (Campylobacter jejuni [6]) of the same molecule?
Answer: The MIC was 512 µg/mL (≈ 698 µM).

Question: What about the MIC (Campylobacter jejuni [7]) of the same molecule?
Answer: Its MIC is 128 µg/mL (≈ 174 µM).

Question: What about the MIC (Campylobacter jejuni [8]) of the same molecule?
Answer: Its MIC is 32 µg/mL (≈ 43.6 µM).

Question: What about the MIC (Campylobacter jejuni [9]) of the same molecule?
Answer: Its MIC is 256 µg/mL (≈ 349 µM).

Question: What about the MIC (Campylobacter jejuni [10]) of the same molecule?
Answer: The MIC was 128 µg/mL (≈ 174 µM).

Question: And the MIC (Campylobacter jejuni [11])?
Answer: Its MIC is 32 µg/mL (≈ 43.6 µM).

Question: What about the MIC (Campylobacter jejuni [12]) of the same molecule?
Answer: The MIC was 128 µg/mL (≈ 174 µM).

Question: What about the MIC (Campylobacter jejuni [13]) of the same molecule?
Answer: The MIC was 16 µg/mL (≈ 21.8 µM).

Question: What about the MIC (Campylobacter jejuni [14]) of the same molecule?
Answer: Its MIC is 128 µg/mL (≈ 174 µM).

Question: What about the MIC (Campylobacter jejuni [15]) of the same molecule?
Answer: The MIC was 8 µg/mL (≈ 10.9 µM).

Question: And the MIC (Campylobacter jejuni [16])?
Answer: Its MIC is 8 µg/mL (≈ 10.9 µM).

Question: And the MIC (Campylobacter jejuni [17])?
Answer: Its MIC is over 512 µg/mL.

Question: And the MIC (Campylobacter jejuni [18])?
Answer: Its MIC is 4 µg/mL (≈ 5.45 µM).

Question: What about the MIC (Campylobacter jejuni [19]) of the same molecule?
Answer: Its MIC is 16 µg/mL (≈ 21.8 µM).

Question: What about the MIC (Campylobacter jejuni [20]) of the same molecule?
Answer: The MIC was 8 µg/mL (≈ 10.9 µM).

Question: And the MIC (Campylobacter jejuni [21])?
Answer: The MIC was 128 µg/mL (≈ 174 µM).

Question: What about the MIC (Campylobacter jejuni [22]) of the same molecule?
Answer: The MIC was over 512 µg/mL.

Question: What about the MIC (Campylobacter jejuni [23]) of the same molecule?
Answer: The MIC was 64 µg/mL (≈ 87.2 µM).

Question: And the MIC (Campylobacter jejuni [24])?
Answer: Its MIC is 8 µg/mL (≈ 10.9 µM).

Question: What about the MIC (Campylobacter jejuni [25]) of the same molecule?
Answer: Its MIC is 64 µg/mL (≈ 87.2 µM).

Question: What about the MIC (Campylobacter jejuni [26]) of the same molecule?
Answer: The MIC was 16 µg/mL (≈ 21.8 µM).

Question: And the MIC (Campylobacter jejuni [27])?
Answer: The MIC was 64 µg/mL (≈ 87.2 µM).

Question: What about the MIC (Campylobacter jejuni [28]) of the same molecule?
Answer: Its MIC is 8 µg/mL (≈ 10.9 µM).

Question: What about the MIC (Campylobacter jejuni [29]) of the same molecule?
Answer: The MIC was over 512 µg/mL.

Question: And the MIC (Campylobacter jejuni [30])?
Answer: Its MIC is over 512 µg/mL.

Question: And the MIC (Campylobacter jejuni [31])?
Answer: Its MIC is 8 µg/mL (≈ 10.9 µM).

Question: What about the MIC (Campylobacter jejuni [32]) of the same molecule?
Answer: The MIC was 32 µg/mL (≈ 43.6 µM).

Question: And the MIC (Campylobacter jejuni [33])?
Answer: Its MIC is 256 µg/mL (≈ 349 µM).

Question: And the MIC (Campylobacter jejuni [34])?
Answer: The MIC was over 512 µg/mL.

Question: What about the MIC (Campylobacter jejuni [35]) of the same molecule?
Answer: The MIC was 8 µg/mL (≈ 10.9 µM).

Question: And the MIC (Campylobacter jejuni [36])?
Answer: Its MIC is 128 µg/mL (≈ 174 µM).

Question: And the MIC (Campylobacter jejuni [37])?
Answer: The MIC was over 512 µg/mL.

Question: And the MIC (Campylobacter jejuni [38])?
Answer: Its MIC is 64 µg/mL (≈ 87.2 µM).

Question: And the MIC (Campylobacter jejuni [39])?
Answer: The MIC was 128 µg/mL (≈ 174 µM).
